Measurements reported in article PMC6017357, “In Vitro Inhibitory Effects of Synthetic Cannabinoid EAM-2201 on Cytochrome P450 and UDP-Glucuronosyltransferase Enzyme Activities in Human Liver Microsomes” (Molecules : A Journal of Synthetic Chemistry and Natural …, 2018).

Assays:
[1] = target: T1, UGT1A9 (Homo sapiens, UniProt O60656); test: UGT1A9-catalyzed mycophenolic acid glucuronidation in human liver microsomes; format: in vitro ADME; details: at 50 µM
T1 construct: ultrapooled human liver microsomes (0.2 mg/mL), 5 mM UDPGA; from tissue; host or cells: ultrapooled human liver microsomes
T1 sequence (O60656 26-530): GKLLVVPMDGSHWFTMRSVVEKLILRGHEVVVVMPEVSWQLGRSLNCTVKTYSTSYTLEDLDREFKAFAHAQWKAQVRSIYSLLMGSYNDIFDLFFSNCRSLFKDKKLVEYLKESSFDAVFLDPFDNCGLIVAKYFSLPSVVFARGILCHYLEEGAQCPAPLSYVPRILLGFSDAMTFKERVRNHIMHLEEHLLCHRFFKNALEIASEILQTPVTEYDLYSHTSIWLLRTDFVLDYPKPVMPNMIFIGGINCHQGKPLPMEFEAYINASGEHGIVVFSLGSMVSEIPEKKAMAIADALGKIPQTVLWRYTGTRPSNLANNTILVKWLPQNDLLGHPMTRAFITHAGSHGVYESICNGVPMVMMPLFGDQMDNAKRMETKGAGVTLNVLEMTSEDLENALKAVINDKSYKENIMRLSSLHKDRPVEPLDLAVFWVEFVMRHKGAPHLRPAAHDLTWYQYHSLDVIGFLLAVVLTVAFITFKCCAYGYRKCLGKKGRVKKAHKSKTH
Method: The inhibitory effects of EAM-2201 on UGT1A1, UGT1A3, UGT1A4, UGT1A6, UGT1A9 and UGT2B7 were evaluated using LC-MS/MS and the cocktail of UGT substrates as previously described. Each incubation mixture was prepared in a final volume of 100 µL as follows: ultrapooled human liver microsomes (0.2 mg/mL), 5 mM UDPGA, 10 mM magnesium chloride, alamethicin (25 µg/mL), 50 mM Tris buffer (pH 7.4), various concentrations of EAM-2201 in DMSO (final concentrations of 1–50 µM, 0.5% DMSO) and the UGT enzyme-specific substrates of two cocktail sets (set A: 0.5 µM SN-38, 2 µM chenodeoxycholic acid and 0.5 µM trifluoperazine; set B: 1 µM N-acetylserotonin, 0.2 µM mycophenolic acid and 1 µM naloxone, acetonitrile content, 0.5%). […] Supernatant from sets A and B (50 µL of each) was mixed and aliquots (5 µL) were analyzed by LC-MS/MS. […]
The metabolites formed from the six UGT cocktail substrates were simultaneously measured using LC-MS/MS [41]. […] Each metabolite was quantified via SRM in the negative ion mode: chenodeoxycholic acid 24-acyl-β-glucuronide, 567.2 > 391.0; mycophenolic acid glucuronide, 495.2 > 318.9; and propofol glucuronide (IS), 353.3 > 177.1; and in the positive ion mode: SN-38 glucuronide, 569.0 > 393.0; trifluoperazine glucuronide, 584.2 > 408.1; N-acetylserotonin-β-D-glucuronide, 395.2 > 219.0; naloxone 3-β-D-glucuronide, 504.0 > 310.0; and meloxicam (IS), 352.0 > 115.1. […]

[2] = human liver microsomes; cited from earlier work

CCc1ccc(C(=O)c2cn(CCCCCF)c3ccccc23)c2ccccc12 [EAM-2201, (4-ethyl-1-naphthalenyl)[1-(5-fluoropentyl)-1H-indol-3-yl]-methanone]
inhibition of UGT1A9-catalyzed mycophenolic acid glucuronidation [1]: negligibly inhibited
number of metabolites [2]: 37 metabolites
